From the SangsterLogP compilation
Blank lines part the entries; values can stand above or below the compound they belong to.

Experiments:
[1] = method code SF-HPLC, from DOI: 10.1016/s0223-5234(98)80011-1; conditions: pH 7.4

Structure (SMILES): CCCc1nc(N)nc(N2CCOCC2)n1
logD [1]: 1.55

Structure (SMILES): CCCc1nc(NCC(C)C)nc(N2CCOCC2)n1
logP: 2.65

Structure (SMILES): C1CCC(Cc2nc(NC3CC3)nc(N3CCOCC3)n2)C1
logD [1]: 3.6

Structure (SMILES): C1CC(Cc2nc(NC3CC3)nc(N3CCOCC3)n2)C1
logD [1]: 3.14

Structure (SMILES): CCCc1nc(NC(=O)c2ccccc2)nc(N2CCOCC2)n1
logD [1]: 2.33

Structure (SMILES): CCCc1nc(NCC)nc(N2CCCCC2)n1
logD [1]: 3.34

Structure (SMILES): CCCc1nc(NCC)nc(N2CCOCC2)n1
logD [1]: 2.23

Structure (SMILES): C1CC1Cc1nc(NC2CC2)nc(N2CC3CCC(C2)O3)n1
logD [1]: 3.07

Structure (SMILES): CCCc1nc(NC2CC2)nc(N2CCOCC2)n1
logD [1]: 2.11

Structure (SMILES): CCCc1nc(NCN(C)C)nc(N2CCOCC2)n1
logP: 1.94

Structure (SMILES): C=CCCNc1nc(CCC)nc(N2CCOCC2)n1
logP: 2.47

Structure (SMILES): CC(C)Cc1nc(NC2CC2)nc(N2CC3CCC(C2)O3)n1
logD [1]: 3.34

Structure (SMILES): COC1CN(c2nc(CC3CC3)nc(NC3CC3)n2)C1
logD [1]: 2.37

Structure (SMILES): O=S1CCN(c2nc(CC3CC3)nc(NC3CC3)n2)CC1
logD [1]: 1.56

Structure (SMILES): CCCCc1nc(NC2CC2)nc(N(CCO)CCO)n1
logD [1]: 1.76

Structure (SMILES): OC1CN(c2nc(CC3CC3)nc(NC3CC3)n2)C1
logD [1]: 1.71

Structure (SMILES): CCCCc1nc(NC2CC2)nc(N2CCOCC2)n1
logD [1]: 2.8

Structure (SMILES): CCCc1nc(NCc2ccccc2OC)nc(N2CCOCC2)n1
logD [1]: 3.59

Structure (SMILES): CCCCNc1nc(CCC)nc(N2CCOCC2)n1
logP: 2.78

Now from value to compound:

logD [1]: 3.02
Structure (SMILES): CCCCc1nc(NC2CC2)nc(N2CC3CCC(C2)O3)n1

logP: 2.02
Structure (SMILES): CCCc1nc(NC)nc(N2CCOCC2)n1

logD [1]: 1.62
Structure (SMILES): CCCc1nc(NCN2CCCC2=O)nc(N2CCOCC2)n1

logD [1]: 1.76
Structure (SMILES): O=S1(=O)CCN(c2nc(CC3CC3)nc(NC3CC3)n2)CC1

logD [1]: 1.82
Structure (SMILES): OCCN(CCO)c1nc(CC2CC2)nc(NC2CC2)n1

logD [1]: 2.33
Structure (SMILES): C1CN(c2nc(CC3CC3)nc(NC3CC3)n2)CCO1

logP: 2.43
Structure (SMILES): CCCc1nc(N)nc(N2CCCCC2)n1

logD [1]: 0.67
Structure (SMILES): CCCc1nc(NCCC(=O)N(C)C)nc(N2CCOCC2)n1

logD [1]: 1.84
Structure (SMILES): Cc1nc(NC2CC2)nc(N2CC3CCC(C2)O3)n1

logD [1]: 1.61
Structure (SMILES): CCCCc1nc(NC2CC2)nc(N2CC(O)C2)n1
